Reference: patent publication US10329270B2, “Heteroaryl compounds as BTK inhibitors and uses thereof” (Merck Patent GmbH, priority 2013, dated 2019)

Target: T1, full-length human BTK (Homo sapiens, UniProt Q06187)
T1 construct: 2.5× stocks of full-length human BTK (08-080); purchased CarnaBio USA, Inc., Natick, Mass; 08-080
Test: Assay A: BTK IC50 Enzyme Assay (microfluidic off-chip mobility shift kinase assay)
Type: biochemical
Settings: full-length human BTK, kinKDR peptide substrate, incubated 90 min at 27 C; read-out: Assay A (Time Dependent BTK Enzyme Assay IC50)
Description: Assay A: BTK IC50 Enzyme Assay
The following describes a microfluidic, off-chip mobility shift kinase assay used to measure inherent potency of compounds against BTK enzyme. Compounds described by embodiments of the present invention were assayed using this protocol and the data from the same is recorded in Table 2 within the column labeled: “Time Dependent BTK Enzyme Assay IC50”.
Stopped reactions were monitored at −2 PSI, −3000 V/−700 V in a LabChip 3000 plate reader from Caliper Life Sciences, a PerkinElmer Company (Hopkinton, Mass.), and the activity was measured by off-chip mobility shift assay measuring the charge/mass difference between substrate and product resulting from peptide phosphorilation. IC50 and efficacy were determined by plotting log [Inhibitor] vs. % Activity in GeneData Screener (Basel, Switzerland). […] I<1 uM and II>1 uM.

T1 sequence (Q06187 whole entry): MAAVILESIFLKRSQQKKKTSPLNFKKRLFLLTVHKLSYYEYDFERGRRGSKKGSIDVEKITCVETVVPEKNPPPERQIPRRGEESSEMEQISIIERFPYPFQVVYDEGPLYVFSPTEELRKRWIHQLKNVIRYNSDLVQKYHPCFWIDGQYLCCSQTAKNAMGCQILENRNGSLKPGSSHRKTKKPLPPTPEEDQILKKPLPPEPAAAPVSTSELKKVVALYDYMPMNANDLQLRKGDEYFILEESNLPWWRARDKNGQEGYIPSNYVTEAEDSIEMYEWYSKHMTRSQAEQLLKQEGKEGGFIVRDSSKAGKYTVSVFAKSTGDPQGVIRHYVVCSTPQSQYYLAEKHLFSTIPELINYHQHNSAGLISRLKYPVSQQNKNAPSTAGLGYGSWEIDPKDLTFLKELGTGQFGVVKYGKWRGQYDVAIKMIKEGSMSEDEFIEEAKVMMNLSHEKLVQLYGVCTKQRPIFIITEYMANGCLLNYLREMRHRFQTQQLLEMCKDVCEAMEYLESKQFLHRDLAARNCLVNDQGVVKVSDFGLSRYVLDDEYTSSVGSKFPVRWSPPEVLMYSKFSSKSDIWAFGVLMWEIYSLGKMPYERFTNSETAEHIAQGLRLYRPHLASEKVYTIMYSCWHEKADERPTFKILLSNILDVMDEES

| SMILES | IC50 |
| --- | --- |
| C=CC(=O)N1C[C@@H]2C[C@H]1CN2c1ncc(C(N)=O)c(Oc2ccc(Oc3ccccc3)cc2)n1 [Compound 147, 2-((1S,4S)-5-acryloyl-2,5-diazabicyclo[2.2.1]heptan-2-yl)-4-(4-phenoxyphenoxy)pyrimidine-5-carboxamide] | < 100 nM |
| C=CC(=O)N1CCn2ncc(-c3cnc(C(N)=O)cn3)c2C1 [Compound 137] | > 5000 nM |
| C=CC(=O)N1CCC(O)(c2ccc(C(N)=O)c(Oc3ccc(Oc4ccccc4)cc3)n2)C(O)C1 (centres unmarked) [Compound 77, 1′-Acryloyl-3′,4′-dihydroxy-6-(4-phenoxy-phenoxy)-1′,2′,3′,4′,5′,6′-hexahydro-[2,4′]bipyridinyl-5-carboxylic acid amide] | < 100 nM |
| C=CC(=O)N1CCC(c2ccc(C(N)=O)c(Nc3ccc(C(=O)N4CCN(C(=O)CCCCNC(=S)Nc5ccc(C6=C7C(C)=CC(C)=[N+]7[B-](F)(F)n7c(C)cc(C)c76)cc5)CC4)cc3)n2)CC1 [Compound 63, 1′-Acryloyl-6-{4-[4-(5-{3-[4-(4,4-difluoro-1,3,5,7-tetramethyl-3a,4alambda4-diaza-4lambda4-bora-s-indacen-8-yl)-phenyl]-thioureido}-pentanoyl)-piperazine-1-carbonyl]-phenylamino}-1′,2′,3′,4′,5′,6′-hexahydro-[2,4′]bipyridinyl-5-carboxylic acid amide] | < 100 nM |
| N#CN1CCC(Nc2cnc(Oc3ccc(Oc4ccccc4)cc3)c(C(N)=O)c2)C1 (centres unmarked) [Compound 243, 5-[(1-cyanopyrrolidin-3-yl)amino]-2-(4-phenoxyphenoxy)pyridine-3-carboxamide] | 100 to 1000 nM |
| C=CC(=O)N1CC2(CC(Nc3ncc(C(N)=O)c(Oc4ccc(Oc5ccccc5)cc4)n3)C2)C1 [Compound 183, 2-((2-acryloyl-2-azaspiro[3.3]heptan-6-yl)amino)-4-(4-phenoxyphenoxy)pyrimidine-5-carboxamide] | 100 to 1000 nM |
| C/C=C/C(=O)N1CC2CN(c3cnc(Oc4ccc(Oc5ccccc5)cc4)c(C(N)=O)c3)CC2C1 (centres unmarked) [Compound 217, 5-[5-((E)-But-2-enoyl)-hexahydro-pyrrolo[3,4-c]pyrrol-2-yl]-2-(4-phenoxy-phenoxy)-nicotinamide] | > 5000 nM |
| C=CC(=O)N[C@H]1CCN(c2cc(Oc3ccc(OCc4ccccc4)cc3)c(C(N)=O)cn2)C1 [Compound 112, (S)-6-(3-acrylamidopyrrolidin-1-yl)-4-(4-(benzyloxy)phenoxy)nicotinamide] | 100 to 1000 nM |
| C=CC(=O)N1CCC(Nc2cnc(Oc3ccc(Oc4cccc(F)c4)cc3)c(C(N)=O)c2)CC1 [Compound 228, 5-(1-Acryloyl-piperidin-4-ylamino)-2-[4-(3-fluoro-phenoxy)-phenoxy]-nicotinamide] | < 100 nM |
| C=CC(=O)N[C@H]1CCN(c2ccc(C(N)=O)c(Nc3ccc(F)c(C)c3)n2)C1 [Compound 60, 6-((S)-3-Acryloylamino-pyrrolidin-1-yl)-2-(4-fluoro-3-methyl-phenylamino)-nicotinamide] | 100 to 1000 nM |
| C/C=C/C(=O)NC1CCN(c2cnc(Oc3ccc(Oc4ccccc4)cc3)c(C(N)=O)c2)C1 (centres unmarked) [Compound 199, 5-[3-((E)-But-2-enoylamino)-pyrrolidin-1-yl]-2-(4-phenoxy-phenoxy)-nicotinamide] | > 5000 nM |
| N#CN1CCCC(Nc2cnc(Oc3ccc(Oc4ccccc4)cc3)c(C(N)=O)c2)C1 (centres unmarked) [Compound 247, 5-[(1-cyanopiperidin-3-yl)amino]-2-(4-phenoxyphenoxy)pyridine-3-carboxamide] | 1000 to 5000 nM |
| N#CN1CCC(c2cnc(Oc3ccc(Oc4ccccc4)cc3)c(C(N)=O)c2)CC1 [Compound 244, 5-(1-cyanopiperidin-4-yl)-2-(4-phenoxyphenoxy)pyridine-3-carboxamide] | 1000 to 5000 nM |
| CC(C)=CC(=O)C1CCN(c2ccc(C(N)=O)c(Oc3ccc(Oc4ccccc4)cc3)n2)C1 (centres unmarked) [Compound 93, 6-[3-(3-Methyl-but-2-enoyl)-pyrrolidin-1-yl]-2-(4-phenoxy-phenoxy)-nicotinamide] | 100 to 1000 nM |
| C=CC(=O)N1C[C@@H]2C[C@H]1CN2c1ccc(C(N)=O)c(Nc2cccnc2)n1 [Compound 15, 6-((1S,4S)-5-acryloyl-2,5-diazabicyclo[2.2.1]heptan-2-yl)-2-(pyridin-3-ylamino)nicotinamide] | < 100 nM |
| C=CC(=O)N[C@H]1CCN(c2ccc(C(N)=O)c(Oc3cnn(Cc4ccccc4)c3)n2)C1 [Compound 97] | 1000 to 5000 nM |
| C=CC(=O)N1CCN(c2ccc(C(N)=O)c(Nc3cccnc3)n2)CC1 [Compound 43] | < 100 nM |
| C=CC(=O)N[C@H]1CCN(c2ncc(C(N)=O)cc2-c2ccc(Oc3ccccc3)cc2)C1 [Compound 170, 6-((S)-3-Acryloylamino-pyrrolidin-1-yl)-5-(4-phenoxy-phenyl)-nicotinamide] | > 5000 nM |
| C=CC(=O)N1CCC(c2cc(Oc3ccc(OCc4ccccc4)cc3)c(C(N)=O)cn2)C1 (centres unmarked) [Compound 111, 6-(1-acryloylpyrrolidin-3-yl)-4-(4-(benzyloxy)phenoxy)nicotinamide] | < 100 nM |

| SMILES | IC50 |
| --- | --- |
| C=CC(=O)N1CCC(Nc2ccc(C(N)=O)c(Nc3cccc(C)c3)n2)C1 (centres unmarked) [Compound 50, 6-(1-Acryloyl-pyrrolidin-3-ylamino)-2-m-tolylamino-nicotinamide] | < 100 nM |
| C=CC(=O)N1CCN(c2ncc(C(N)=O)c(Oc3ccc(Oc4ccccc4)cc3)n2)C(C)(C)C1 [Compound 151] | 100 to 1000 nM |
| C=CC(=O)N1CCC(Nc2cnc(Oc3ccc(Oc4ccccc4)cc3)c(C(N)=O)c2)C1 (centres unmarked) [Compound 201, 5-(1-Acryloyl-pyrrolidin-3-ylamino)-2-(4-phenoxy-phenoxy)-nicotinamide] | < 100 nM |
| C=CC(=O)N1CCC(c2cc(Oc3ccc(Oc4ccc(C)cc4)cc3)c(C(N)=O)cn2)C1 (centres unmarked) [Compound 110, 6-(1-acryloylpyrrolidin-3-yl)-4-(4-(p-tolyloxy)phenoxy)nicotinamide] | < 100 nM |
| C=CC(=O)NCc1ccc(-c2ccc(C(N)=O)c(Oc3ccc(Oc4ccccc4)cc3)n2)s1 [Compound 160, 6-(5-(acrylamidomethyl)thiophen-2-yl)-2-(4-phenoxyphenoxy)nicotinamide] | > 5000 nM |
| C=CC(=O)NCc1cccc(-c2ccc(C(N)=O)c(Oc3ccc(Oc4ccccc4)cc3)n2)c1 [Compound 98, 6-(3-(acrylamidomethyl)phenyl)-2-(4-phenoxyphenoxy)nicotinamide] | 1000 to 5000 nM |
| C=CC(=O)N1CC2CN(c3cnc(Oc4ccc(Oc5cccc(F)c5)cc4)c(C(N)=O)c3)CC2C1 (centres unmarked) [Compound 238, 5-(5-Acryloyl-hexahydro-pyrrolo[3,4-c]pyrrol-2-yl)-2-[4-(3-fluoro-phenoxy)-phenoxy]-nicotinamide] | 100 to 1000 nM |
| C=CC(=O)N[C@H]1CCN(c2ncc(C(N)=O)c(Nc3ccc(C(=O)N4CCOCC4)cc3)n2)C1 [Compound 140, 2-((S)-3-Acryloylamino-pyrrolidin-1-yl)-4-[4-(morpholine-4-carbonyl)-phenylamino]-pyrimidine-5-carboxylic acid amide] | < 100 nM |
| C=CC(=O)NCc1cccc(-c2cnc(C(N)=O)nc2)c1 [Compound 152] | 1000 to 5000 nM |
| C=CC(=O)N[C@H]1CCN(c2ccc(C(N)=O)c(Oc3ccc(Oc4cccc(C(F)(F)F)c4)cc3)n2)C1 [Compound 82, (S)-6-(3-acrylamidopyrrolidin-1-yl)-2-(4-(3-(trifluoromethyl)phenoxy)phenoxy)nicotinamide] | < 100 nM |
| C=CC(=O)NCc1ccc(-c2ccc(C(N)=O)c(Oc3ccc(Oc4ccccc4)cc3)n2)o1 [Compound 161, 6-(5-(acrylamidomethyl)furan-2-yl)-2-(4-phenoxyphenoxy)nicotinamide] | > 5000 nM |
| CN(C)C/C=C/C(=O)N1CCC(Nc2ncc(C(N)=O)c(N)n2)C1 (centres unmarked) [Compound 138, 4-Amino-2-[1-((E)-4-dimethylamino-but-2-enoyl)-pyrrolidin-3-ylamino]-pyrimidine-5-carboxylic acid amide] | > 5000 nM |
| C=CC(=O)Nc1ccc(-c2ccc(C(N)=O)c(Oc3ccc(Oc4ccccc4)cc3)n2)cc1 [Compound 159, 6-(4-acrylamidophenyl)-2-(4-phenoxyphenoxy)nicotinamide] | > 5000 nM |
| C=CC(=O)N[C@H]1CCN(c2ncc(C#N)c(Nc3ccc(C(=O)NC(C)(C)C)cc3)n2)C1 [Compound 178] | < 100 nM |
| C=CC(=O)N1CCN(c2ncc(C(N)=O)c(Oc3ccc(Oc4ccccc4)cc3)n2)C(C)C1 (centres unmarked) [Compound 218, 2-(4-acryloyl-2-methylpiperazin-1-yl)-4-(4-phenoxyphenoxy)pyrimidine-5-carboxamide] | < 100 nM |
| C=CC(=O)N1CC=C(c2cncc(C(N)=O)c2Nc2ccc(N3C[C@@H](C)O[C@@H](C)C3)nc2)CC1 [Compound 168, 1′-Acryloyl-4-[6-(cis-2,6-dimethyl-morpholin-4-yl)-pyridin-3-ylamino]-1′,2′,3′,6′-tetrahydro-[3,4′]bipyridinyl-5-carboxylic acid amide] | 1000 to 5000 nM |
| N#C/C(=C\C1CC1)C(=O)N1C[C@@H]2C[C@H]1CN2c1ccc(C(N)=O)c(Oc2ccc(Oc3ccccc3)cc2)n1 [Compound 190, 6-((1S,4S)-5-((E)-2-cyano-3-cyclopropylacryloyl)-2,5-diazabicyclo[2.2.1]heptan-2-yl)-2-(4-phenoxyphenoxy)nicotinamide] | 1000 to 5000 nM |
| C=CC(=O)N[C@H]1CCN(c2ccc(C(N)=O)c(Oc3ccc(Oc4cccc(F)c4)cc3)n2)C1 [Compound 73, (S)-6-(3-acrylamidopyrrolidin-1-yl)-2-(4-(3-fluorophenoxy)phenoxy)nicotinamide] | < 100 nM |
| C=CC(=O)N1CCC(Nc2cnc(Oc3ccc(Oc4cccc(F)c4)cc3)c(C(N)=O)c2)C1 (centres unmarked) [Compound 253, 5-(1-Acryloyl-pyrrolidin-3-ylamino)-2-[4-(3-fluoro-phenoxy)-phenoxy]-nicotinamide] | < 100 nM |
